Results from patent US20060134102A1, “Lymphotoxin beta receptor agents in combination with chemotherapeutic agents” (Biogen Idec MA Inc., priority 2002, published 2006).

Test system: KM-20L2 human colorectal adenocarcinoma
Assay: KM-20L2 xenograft model: growth of established KM-20L2 human colorectal tumors in athymic nude mice (tumor volume/weight, % T/C, Fa, Combination Index)
Type: in vivo

## Nc1ccn([C@@H]2O[C@H](CO)[C@@H](O)C2(F)F)c(=O)n1 [Gemcitabine, gemcitabine, reference compound]
Gem 10 mg/kg, Day 37
  Mean Tumor Volume: 723.7 cubic mm
  Mean Tumor Volume Decrease: 484.3 cubic mm
Gem 10 mg/kg, Day 41
  Mean Fraction Affected (Fa): 0.399
  Mean Fraction Affected/Fraction Unaffected (Fa/Fu): 0.664
  Mean Tumor Volume: 865.2 cubic mm
  Mean Tumor Volume Decrease: 574.2 cubic mm
Gem 10 mg/kg, Day 43
  Mean Fraction Affected (Fa): 0.393
  Mean Fraction Affected/Fraction Unaffected (Fa/Fu): 0.647
  Mean Tumor Volume: 975.7 cubic mm
  Mean Tumor Volume Decrease: 631.0 cubic mm
Gem 20 mg/kg, Day 9
  Mean Fraction Affected (Fa): 0.053
  Mean Fraction Affected/Fraction Unaffected (Fa/Fu): 0.056
  Mean Tumor Volume: 105.9 cubic mm
  Mean Tumor Volume Decrease: 5.9 cubic mm
Gem 20 mg/kg, Day 13
  Mean Fraction Affected (Fa): 0.357
  Mean Fraction Affected/Fraction Unaffected (Fa/Fu): 0.555
  Mean Tumor Volume: 111.0 cubic mm
  Mean Tumor Volume Decrease: 61.6 cubic mm
Gem 20 mg/kg, Day 16
  Mean Fraction Affected (Fa): 0.623
  Mean Fraction Affected/Fraction Unaffected (Fa/Fu): 1.655
  Mean Tumor Volume: 99.8 cubic mm
  Mean Tumor Volume Decrease: 165.2 cubic mm
Gem 20 mg/kg, Day 20
  Mean Fraction Affected (Fa): 0.748
  Mean Fraction Affected/Fraction Unaffected (Fa/Fu): 2.966
  Mean Tumor Volume: 101.1 cubic mm
  Mean Tumor Volume Decrease: 299.9 cubic mm
Gem 20 mg/kg, Day 23
  Mean Fraction Affected (Fa): 0.721
  Mean Fraction Affected/Fraction Unaffected (Fa/Fu): 2.579
  Mean Tumor Volume: 147.3 cubic mm
  Mean Tumor Volume Decrease: 379.9 cubic mm
Gem 20 mg/kg, Day 27
  Mean Fraction Affected (Fa): 0.663
  Mean Fraction Affected/Fraction Unaffected (Fa/Fu): 1.970
  Mean Tumor Volume: 225.1 cubic mm
  Mean Tumor Volume Decrease: 443.5 cubic mm
Gem 20 mg/kg, Day 30
  Mean Fraction Affected (Fa): 0.605
  Mean Fraction Affected/Fraction Unaffected (Fa/Fu): 1.530
  Mean Tumor Volume: 322.6 cubic mm
  Mean Tumor Volume Decrease: 493.6 cubic mm
Gem 20 mg/kg, Day 34
  Mean Fraction Affected (Fa): 0.578
  Mean Fraction Affected/Fraction Unaffected (Fa/Fu): 1.371
  Mean Tumor Volume: 443.0 cubic mm
  Mean Tumor Volume Decrease: 607.3 cubic mm
Gem 20 mg/kg, Day 37
  Mean Fraction Affected (Fa): 0.568
  Mean Fraction Affected/Fraction Unaffected (Fa/Fu): 1.314
  Mean Tumor Volume: 522.1 cubic mm
  Mean Tumor Volume Decrease: 685.9 cubic mm
Gem 20 mg/kg, Day 41
  Mean Fraction Affected (Fa): 0.532
  Mean Fraction Affected/Fraction Unaffected (Fa/Fu): 1.135
  Mean Tumor Volume: 674.3 cubic mm
  Mean Tumor Volume Decrease: 765.1 cubic mm
Gem 20 mg/kg, Day 43
  Mean Fraction Affected (Fa): 0.531
  Mean Fraction Affected/Fraction Unaffected (Fa/Fu): 1.134
  Mean Tumor Volume: 753.0 cubic mm
  Mean Tumor Volume Decrease: 853.7 cubic mm
Given Separately, Day 16
  Median Effect Dose: 14.1 mg/kg
Given Separately, Day 20
  Median Effect Dose: 10.1 mg/kg
Given Separately, Day 23
  Median Effect Dose: 10.8 mg/kg
Given Separately, Day 27
  Median Effect Dose: 12.8 mg/kg
Given Separately, Day 30
  Median Effect Dose: 14.1 mg/kg
Given Separately, Day 34
  Median Effect Dose: 14.8 mg/kg
Given Separately, Day 37
  Median Effect Dose: 15.0 mg/kg
Given Separately, Day 41
  Median Effect Dose: 16.8 mg/kg
Given Separately, Day 43
  Median Effect Dose: 16.9 mg/kg
Dose of the labelled agent when huCBE11 and Gemcitabine Combined (4:5), Day 16
  Median Effect Dose: 4.5 mg/kg
Dose of the labelled agent when huCBE11 and Gemcitabine Combined (4:5), Day 20
  Median Effect Dose: 1.7 mg/kg
Dose of the labelled agent when huCBE11 and Gemcitabine Combined (4:5), Day 23
  Median Effect Dose: 0.7 mg/kg
Dose of the labelled agent when huCBE11 and Gemcitabine Combined (4:5), Day 27
  Median Effect Dose: 0.9 mg/kg
Dose of the labelled agent when huCBE11 and Gemcitabine Combined (4:5), Day 30
  Median Effect Dose: 0.8 mg/kg
Dose of the labelled agent when huCBE11 and Gemcitabine Combined (4:5), Day 34
  Median Effect Dose: 0.8 mg/kg
Dose of the labelled agent when huCBE11 and Gemcitabine Combined (4:5), Day 37
  Median Effect Dose: 0.5 mg/kg
Dose of the labelled agent when huCBE11 and Gemcitabine Combined (4:5), Day 41
  Median Effect Dose: 0.7 mg/kg
Dose of the labelled agent when huCBE11 and Gemcitabine Combined (4:5), Day 43
  Median Effect Dose: 0.6 mg/kg
gemcitabine
  Activity by NCI criteria (% T/C of 42 or less): active
Gemcitabine 20 mg/kg Days 13-55, 10 mg/kg Days 16-55, 5 mg/kg Days 13-43, separate study
  Inhibition of tumor growth vs vehicle control: Significant inhibition of tumor growth
Gemcitabine 20 mg/kg, Day 16 through Day 34
  % T/C: ≤ 42%
Gemcitabine 25 mg/kg, Day 17 through Day 31
  % T/C: ≤ 42%
Gemcitabine 140, 100, 50 and 25 mg/kg, Day 10 to Day 41
  Inhibition of tumor growth vs saline control: Significant inhibition of tumor growth
Gemcitabine 140, 100 and 50 mg/kg, from Days 14 or 17 for the duration of the study
  % T/C: ≤ 42%
